In patent publication US20250325534A1, “MICROBIOCIDAL TETRAHYDROISOQUINOLINE DERIVATIVES” (SYNGENTA CROP PROTECTION AG, priority 2021, published 2025):

Experiments:
[1] = test system: Mycosphaerella arachidis; experiment: Mycosphaerella arachidis (Cercospora arachidicola) / liquid culture (early leaf spot); format: cell-based; conditions: 96 h, photometrically 4-5 days after application, read-out: control of Mycosphaerella arachidis
Method in brief: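 Cryostored M. arachidis conidia in potato dextrose broth were added to compound applied as DMSO solution. Incubated at 24 °C; growth inhibition measured photometrically 4-5 days after application.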

[2] = test system: Mycosphaerella graminicola; experiment: Mycosphaerella graminicola (Septoria tritici) / liquid culture (Septoria blotch); format: cell-based; conditions: Zymoseptoria tritici, 96 h, photometrically 4-5 days after application, read-out: control of Mycosphaerella graminicola
Method in brief: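 Conidia from cryogenic storage mixed into potato dextrose broth, added to test compound in DMSO. Plates incubated at 24° C; growth inhibition read photometrically 4-5 days after application.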

[3] = test system: Puccinia recondita f. sp. tritici; experiment: Puccinia recondita f. sp. tritici / wheat / leaf disc preventative (brown rust); format: in vivo; conditions: foliar, inoculated 1 day after application
Experimental: Example B14: Puccinia recondita f. Sp. Tritici/Wheat/Leaf Disc Preventative (Brown Rust) Wheat leaf segments cv. Kanzler are placed on agar in multiwell plates (24-well format) and sprayed with the formulated test compound diluted in water. The leaf disks are inoculated with a spore suspension of the fungus 1 day after application. The inoculated leaf segments are incubated at 19° C. and 75% relative humidity under a light regime of 12 h light/12 h darkness in a climate cabinet and the activity of a compound is assessed as percent disease control compared to untreated when an appropriate level of disease damage appears in untreated check leaf segments (7-9 days after application).

[4] = test system: Monographella nivalis; experiment: Monographella nivalis (Microdochium nivale) / liquid culture (foot rot cereals); format: cell-based; conditions: 96 h, photometrically 4-5 days after application, read-out: control of Monographella nivalis
Method in brief: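 Microdochium nivale conidia in potato dextrose broth were added to test compound in DMSO and incubated at 24° C. Growth inhibition was measured photometrically 4-5 days after application.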

[5] = test system: Phaeosphaeria nodorum; experiment: Phaeosphaeria nodorum (Septoria nodorum) / wheat / leaf disc preventative (glume blotch); format: in vivo; conditions: Parastagonospora nodorum, foliar, inoculated 2 days after application
Experimental: Example B9: Phaeosphaeria nodorum (Septoria nodorum)/Wheat/Leaf Disc Preventative (Glume Blotch) Wheat leaf segments cv. Kanzler are placed on agar in a multiwell plate (24-well format) and sprayed with the formulated test compound diluted in water. The leaf disks are inoculated with a spore suspension of the fungus 2 days after application. The inoculated test leaf disks are incubated at 20° C. and 75% relative humidity under a light regime of 12 h light/12 h darkness in a climate cabinet and the activity of a compound is assessed as percent disease control compared to untreated when an appropriate level of disease damage appears in untreated check leaf disks (5-7 days after application).

[6] = test system: Pyrenophora teres; experiment: Pyrenophora teres / barley / leaf disc preventative (net blotch); format: in vivo; conditions: foliar, inoculated 2 days after application
Experimental: Example B16: Pyrenophora teres/Barley/Leaf Disc Preventative (Net Blotch) Barley leaf segments cv. Hasso are placed on agar in a multiwell plate (24-well format) and sprayed with the formulated test compound diluted in water. The leaf segments are inoculated with a spore suspension of the fungus 2 days after application. The inoculated leaf segments are incubated at 20° C. and 65% relative humidity under a light regime of 12 h light/12 h darkness in a climate cabinet and the activity of a compound is assessed as disease control compared to untreated when an appropriate level of disease damage appears in untreated check leaf segments (5-7 days after application).

[7] = test system: Alternaria solani; experiment: Alternaria solani / tomato / leaf disc (early blight); format: in vivo; conditions: foliar, inoculated 2 days after application, vs untreated control
[8] = test system: Blumeria graminis f. sp. tritici; experiment: Blumeria graminis f. sp. tritici / wheat / leaf disc preventative (powdery mildew); format: in vivo; conditions: foliar, inoculated 1 day after application
Experimental: Example B7: Blumeria graminis f. Sp. Tritici (Erysiphe graminis f. Sp. Tritici)/Wheat/Leaf Disc Preventative (Powdery Mildew on Wheat) Wheat leaf segments cv. Kanzler are placed on agar in a multiwell plate (24-well format) and sprayed with the formulated test compound diluted in water. The leaf disks are inoculated by shaking powdery mildew infected plants above the test plates 1 day after application. The inoculated leaf disks are incubated at 20° C. and 60% relative humidity under a light regime of 24 h darkness followed by 12 h light/12 h darkness in a climate chamber and the activity of a compound is assessed as percent disease control compared to untreated when an appropriate level of disease damage appears on untreated check leaf segments (6-8 days after application).

[9] = test system: Glomerella lagenarium; experiment: Glomerella lagenarium (Colletotrichum lagenarium) / liquid culture (anthracnose); format: cell-based; conditions: Colletotrichum orbiculare, 72 h, photometrically 3-4 days after application, read-out: control of Glomerella lagenarium
Method in brief: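 Conidia in potato dextrose broth added to test compound delivered as DMSO solution in microtiter plates; incubation at 24° C. Growth inhibition read photometrically 3-4 days after application.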

[10] = test system: Botryotinia fuckeliana; experiment: Botryotinia fuckeliana (Botrytis cinerea) / liquid culture (gray mould); format: cell-based; conditions: 72 h, growth inhibition photometrically 3-4 days after application, read-out: control of Botryotinia fuckeliana
Method in brief: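 Botrytis cinerea conidia in Vogels nutrient broth added to test compound delivered in DMSO. Incubated at 24 °C; growth inhibition measured photometrically 3–4 days after application.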

[11] = test system: Sclerotinia sclerotiorum; experiment: Sclerotinia sclerotiorum / liquid culture (cottony rot); format: cell-based; conditions: 72 h, photometrically 3-4 days after application, read-out: control of Sclerotinia sclerotiorum
Experimental: Example B18: Sclerotinia sclerotiorum/Liquid Culture (Cottony Rot) Mycelia fragments of a newly grown liquid culture of the fungus are directly mixed into a nutrient broth (potato dextrose broth). After placing a DMSO solution of test compound into a microtiter plate (96-well format) the nutrient broth containing the fungal material is added. The test plates are incubated at 24° C. and the inhibition of growth is determined photometrically 3-4 days after application.

CC1c2ccc(OCC(F)(F)F)cc2C(C)(c2cnn(C)c2)CN1C(=O)c1cc(-c2ccc(F)cc2F)on1 (stereo not drawn) [Compound P-34, [5-(2,4-difluorophenyl)isoxazol-3-yl]-[1,4-dimethyl-4-(1-methylpyrazol-4-yl)-6-(2,2,2-trifluoroethoxy)-1,3-dihydroisoquinolin-2-yl]methanone]
≥ 80%: inhibition of growth at 20 ppm [1] | inhibition of growth at 20 ppm [2] | pest or weed control at 200 ppm [3] | inhibition of growth at 20 ppm [4]

Cn1cc(C2CN(C(=O)c3cc(-c4ccccc4)on3)Cc3ccc(C(F)(F)F)cc32)cn1 (stereo not drawn) [Compound P-104, [4-(1-methylpyrazol-4-yl)-6-(trifluoromethyl)-3,4-dihydro-1H-isoquinolin-2-yl]-(5-phenylisoxazol-3-yl)methanone]
≥ 80%: pest or weed control at 200 ppm [5] | pest or weed control at 200 ppm [6] | inhibition of growth at 20 ppm [1] | pest or weed control at 200 ppm [7] | inhibition of growth at 20 ppm [2] | pest or weed control at 200 ppm [3] | pest or weed control at 200 ppm [8] | inhibition of growth at 20 ppm [4] | inhibition of growth at 20 ppm [9]

C#Cc1ccc(-c2cc(C(=O)N3Cc4ccccc4C(c4cnn(C)c4)C3)no2)c(F)c1 (stereo not drawn) [Compound P-31, [5-(4-ethynyl-2-fluoro-phenyl)isoxazol-3-yl]-[4-(1-methylpyrazol-4-yl)-3,4-dihydro-1H-isoquinolin-2-yl]methanone]
≥ 80%: pest or weed control at 200 ppm [3]

Cn1cc(C2CN(C(=O)c3cc(-c4ccc(F)cc4F)on3)Cc3ccccc32)cn1 (stereo not drawn) [Compound P-180, [5-(2,4-difluorophenyl)isoxazol-3-yl]-[4-(1-methylpyrazol-4-yl)-3,4-dihydro-1H-isoquinolin-2-yl]methanone]
≥ 80%: pest or weed control at 200 ppm [5] | pest or weed control at 200 ppm [6] | inhibition of growth at 20 ppm [1] | inhibition of growth at 20 ppm [10] | pest or weed control at 200 ppm [7] | inhibition of growth at 20 ppm [2] | inhibition of growth at 20 ppm [11] | inhibition of growth at 20 ppm [4] | inhibition of growth at 20 ppm [9]

Cc1ccc2c(c1)C(c1cnn(C)c1)CN(C(=O)c1cc(-c3ccc(F)cc3F)on1)C2 (stereo not drawn) [Compound P-133, [5-(2,4-difluorophenyl)isoxazol-3-yl]-[6-methyl-4-(1-methylpyrazol-4-yl)-3,4-dihydro-1H-isoquinolin-2-yl]methanone]
≥ 80%: inhibition of growth at 20 ppm [1] | pest or weed control at 200 ppm [7] | inhibition of growth at 20 ppm [2] | pest or weed control at 200 ppm [3] | inhibition of growth at 20 ppm [4]

Cc1cc(C(=O)N2Cc3ccccc3C(c3cnn(C)c3)C2)no1 (stereo not drawn) [Compound P-194, (5-methylisoxazol-3-yl)-[4-(1-methylpyrazol-4-yl)-3,4-dihydro-1H-isoquinolin-2-yl]methanone]
≥ 80%: inhibition of growth at 20 ppm [1] | inhibition of growth at 20 ppm [2] | pest or weed control at 200 ppm [3] | inhibition of growth at 20 ppm [4] | inhibition of growth at 20 ppm [9]

Cn1cc(C2CN(C(=O)c3cc(-c4cccs4)on3)Cc3ccccc32)cn1 (stereo not drawn) [Compound P-206, [4-(1-methylpyrazol-4-yl)-3,4-dihydro-1H-isoquinolin-2-yl]-[5-(2-thienyl)isoxazol-3-yl]methanone]
≥ 80%: inhibition of growth at 20 ppm [2] | pest or weed control at 200 ppm [3] | inhibition of growth at 20 ppm [4] | inhibition of growth at 20 ppm [9]

CCc1ccc(-c2cc(C(=O)N3Cc4ccccc4C(c4cnn(C)c4)C3)no2)cc1 (stereo not drawn) [Compound P-171, [5-(4-ethylphenyl)isoxazol-3-yl]-[4-(1-methylpyrazol-4-yl)-3,4-dihydro-1H-isoquinolin-2-yl]methanone]
≥ 80%: pest or weed control at 200 ppm [3]

Cn1cc(C2CN(C(=O)c3cc(-c4ccc(F)cc4F)on3)Cc3ccccc32)cn1 (single isomer, unassigned) [Compound P-143, [5-(2,4-difluorophenyl)isoxazol-3-yl]-[4-(1-methylpyrazol-4-yl)-3,4-dihydro-1H-isoquinolin-2-yl]methanone]
≥ 80%: pest or weed control at 200 ppm [6] | inhibition of growth at 20 ppm [11]

Cc1c(C2CN(C(=O)c3cc(-c4ccc(F)cc4)no3)Cc3ccccc32)cnn1C (stereo not drawn) [Compound P-109, [4-(1,5-dimethylpyrazol-4-yl)-3,4-dihydro-1H-isoquinolin-2-yl]-[3-(4-fluorophenyl)isoxazol-5-yl]methanone]
≥ 80%: pest or weed control at 200 ppm [5] | pest or weed control at 200 ppm [6] | inhibition of growth at 20 ppm [1] | inhibition of growth at 20 ppm [10] | pest or weed control at 200 ppm [7] | inhibition of growth at 20 ppm [2] | inhibition of growth at 20 ppm [11] | pest or weed control at 200 ppm [3] | pest or weed control at 200 ppm [8] | inhibition of growth at 20 ppm [4] | inhibition of growth at 20 ppm [9]

Cc1c(C2c3ccccc3CN(C(=O)c3cc(-c4ccc(F)cc4F)on3)C2(C)C)cnn1C (stereo not drawn) [Compound P-100, [5-(2,4-difluorophenyl)isoxazol-3-yl]-[4-(1,5-dimethylpyrazol-4-yl)-3,3-dimethyl-1,4-dihydroisoquinolin-2-yl]methanone]
≥ 80%: pest or weed control at 200 ppm [5] | pest or weed control at 200 ppm [6] | inhibition of growth at 20 ppm [1] | inhibition of growth at 20 ppm [10] | pest or weed control at 200 ppm [7] | inhibition of growth at 20 ppm [2] | inhibition of growth at 20 ppm [11] | inhibition of growth at 20 ppm [4] | inhibition of growth at 20 ppm [9]

Cc1c(C2CN(C(=O)c3nnc(-c4ccc(F)cc4)s3)Cc3ccccc32)cnn1C (stereo not drawn) [Compound P-63, [4-(1,5-dimethylpyrazol-4-yl)-3,4-dihydro-1H-isoquinolin-2-yl]-[5-(4-fluorophenyl)-1,3,4-thiadiazol-2-yl]methanone]
≥ 80%: pest or weed control at 200 ppm [5] | pest or weed control at 200 ppm [6] | inhibition of growth at 20 ppm [1] | inhibition of growth at 20 ppm [10] | pest or weed control at 200 ppm [7] | inhibition of growth at 20 ppm [2] | pest or weed control at 200 ppm [8] | inhibition of growth at 20 ppm [4] | inhibition of growth at 20 ppm [9]
